{"source": "patent US5532267A", "about": "“Amidinonaphthyl furancarboxylate derivatives and acid addition salts therof” (Torii & Co., Ltd., priority 1992, dated 1996)", "key": {"[1]": {"tested_on": "kallikrein", "experiment": "anti-kallikrein activity, hydrolysis of TAME (tosylarginine methyl ester)", "assay_type": "biochemical", "protocol": "(§1) The values in Table 1 represent molar concentrations (IC50) of test compounds which inhibit 50% of the activity of each enzyme to hydrolyze TAME (tosylarginine methyl ester). The anti-trypsin, anti-plasmin, anti-kallikrein and anti-thrombin activities were determined according to the method of Muramatsu et al. (J. Biochem. (1965), volume 58, page 214)."}, "[2]": {"tested_on": "Masugi's nephritis", "experiment": "Effect of TO-195 on Masugi's nephritis", "assay_type": "in vivo, rat", "conditions": "oral"}, "[3]": {"experiment": "Toxicity in humans (Phase I study)", "assay_type": "in vivo, human", "conditions": "healthy male adult volunteers, capsules, 5 to 400 mg/man", "protocol": "Toxicity in humans (Phase I study): This test was for confirmation of the safety of the drug (which was administered to healthy male adult volunteers). Taking into consideration the above toxicity tests, the compound of Example 22 was prepared in the form of capsules containing the compound in an increasing amount (from 5 mg/man to 400 mg/man (body weight 50-60 kg))."}, "[4]": {"biological_target": "T1, C1s (Homo sapiens, UniProt P09871)", "T1 sequence (P09871 16-688)": "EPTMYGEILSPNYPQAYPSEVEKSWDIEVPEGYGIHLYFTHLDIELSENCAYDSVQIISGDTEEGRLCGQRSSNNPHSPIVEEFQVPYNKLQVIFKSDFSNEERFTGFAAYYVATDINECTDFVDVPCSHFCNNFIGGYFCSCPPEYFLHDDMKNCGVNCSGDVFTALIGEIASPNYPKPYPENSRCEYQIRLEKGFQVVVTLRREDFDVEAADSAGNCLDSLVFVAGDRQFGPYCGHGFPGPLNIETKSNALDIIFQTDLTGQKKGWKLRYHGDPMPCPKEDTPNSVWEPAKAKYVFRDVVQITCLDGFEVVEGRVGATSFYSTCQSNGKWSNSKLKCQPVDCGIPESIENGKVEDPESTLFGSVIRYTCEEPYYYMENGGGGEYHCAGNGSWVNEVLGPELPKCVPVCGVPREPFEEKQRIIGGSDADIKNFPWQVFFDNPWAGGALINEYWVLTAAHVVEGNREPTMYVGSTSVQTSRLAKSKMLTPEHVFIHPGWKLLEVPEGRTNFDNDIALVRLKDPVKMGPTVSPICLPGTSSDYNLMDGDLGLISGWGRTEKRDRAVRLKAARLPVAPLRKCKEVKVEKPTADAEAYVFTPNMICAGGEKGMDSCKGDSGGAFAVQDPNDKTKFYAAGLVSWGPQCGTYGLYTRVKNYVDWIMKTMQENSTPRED", "experiment": "anti-complement (anti-C1 esterase) activity, C1s hydrolysis of ATEE (acetyltyrosine ethyl ester)", "assay_type": "biochemical", "method": "The anti-C1 esterase (C1r, C1s) activity was determined according to the method of Okamura et al. (Biochem. Biophys. Acta (1973), volume 295, pages 252-257). […] The values for C1s represent molar concentrations (IC50) of test compounds which inhibit 50% of the activity of C1s to hydrolyze ATEE (acetyltyrosine ethyl ester)."}, "[5]": {"biological_target": "thrombin (Homo sapiens, UniProt P00734)", "experiment": "anti-thrombin activity, hydrolysis of TAME (tosylarginine methyl ester)", "assay_type": "biochemical", "protocol": "as §1"}, "[6]": {"tested_on": "adjuvant arthritis", "experiment": "Effectiveness in treating adjuvant arthritis (Mycobacterium butyricum)", "assay_type": "in vivo, rat", "conditions": "60 mg/kg, oral, day -1 to day 13", "protocol": "Adjuvant arthritis is known as a representative model of autoimmune diseases and is a effective means of testing agents to treat human rheumatoid arthritis (Encyclopedia of Immunology, edited by I. M. Roitt, Academic Press, 1992; Otterness, I. G., et al., J. of Rheumatology (1991), volume 18, pages 505-511),\nThe method of experiment was as follows. A 0.6% Mycobacterium butyricum liquid paraffin suspension, 0.1 ml/animal, was administered to a rat at a subcutaneous site of left hind-limb sole to induce adjuvant arthritis. The present compound was orally administered (in the form of a suspension in water) consecutively from 1 day before the induction to 13 days after the induction. The efficacy of the present compound on adjuvant arthritis was evaluated by examining the swelling accompanied by red spots and subcutaneous knots at the fore-limb, hind-limb, tail, ear and periphery of eye with the lapse of days (on the 8th, 10th, 12th, 14th, 16th and 18th days after adjuvant administration), expressing the results in terms of scores according to the method of F. D. Wood et al. (Int. Arch. Allergy (1969), volume 35, pages 456-467), and calculating the percentage inhibition relative to the control group. Thus, the higher value of percentage inhibition indicates the higher effectiveness."}}, "data": [{"molecule": "Cl.N=C(N)c1ccc2cc(OC(=O)c3ccc(CNC(=O)CCCC(=O)O)o3)ccc2c1", "note": "[Example 22, 6-Amidino-2-naphthyl 5-(4-carboxybutyrylaminomethyl)furan-2-carboxylate hydrochloride]", "values": [{"measurement": "kallikrein inhibition (in words)", "setting": "[1]", "value": "inhibitor"}, {"measurement": "IC50", "setting": "[1]; hydrolysis of TAME, read-out: Kal: molar concentration inhibiting 50% of enzyme activity (IC50)", "value": 470, "unit": "nM"}, {"measurement": "urinary protein excretion (in words)", "setting": "[2]; 3, 10, or 30 mg/kg×2/day, from 2 days before through day 10 after nephrotoxin", "value": "significantly decreased urinary protein excretion"}, {"measurement": "Light microscopic examination of the glomeruli (in words)", "setting": "[2]; 10 and 30 mg/kg×2/day, compared to control group", "value": "significant anti-nephritic effect"}, {"measurement": "urinary protein excretion (in words)", "setting": "[2]; twice a day from day 4 to day 10 after nephrotoxin", "value": "significantly decreased urinary protein excretion"}, {"measurement": "adverse side effects (in words)", "setting": "[3]", "value": "No adverse side effects were found"}, {"measurement": "C1s inhibition (in words)", "setting": "[4]", "value": "inhibitor"}, {"measurement": "IC50", "setting": "[4]; hydrolysis of ATEE, read-out: Cls: molar concentration inhibiting 50% of C1s activity (IC50)", "value": 250, "unit": "nM"}, {"measurement": "thrombin inhibition (in words)", "setting": "[5]", "value": "inhibitor"}, {"measurement": "IC50", "setting": "[5]; hydrolysis of TAME, read-out: Thr: molar concentration inhibiting 50% of enzyme activity (IC50)", "value": 3500, "unit": "nM"}, {"measurement": "Percentage inhibition (arthritis score)", "setting": "[6]", "value": 97.3, "unit": "%"}]}]}
